From ChEMBL document CHEMBL1129510, “Toward a novel metal-based chemotherapy against tropical diseases. 2. Synthesis and antimalarial activity in vitro and in vivo of new ruthenium- and rhodium-chloroquine complexes” (J Med Chem, 1996)

Legend:
Type in all cases: functional, organism-based
Plasmodium berghei = test: In vitro inhibitory activity against Plasmodium berghei
Plasmodium falciparum [1] = test: In vitro inhibitory activity against Plasmodium falciparum FCB2
Plasmodium falciparum [2] = test: In vitro inhibitory activity against Plasmodium falciparum FcB1

| Molecule | IC50 (Plasmodium berghei; Plasmodium berghei) | IC50 (Plasmodium falciparum [1]) | IC50 (Plasmodium berghei) | IC50 (Plasmodium falciparum [2]) |
| --- | --- | --- | --- | --- |
| CCN(CC)CCCC(C)Nc1ccnc2cc(Cl)ccc12 (centres undefined) [CHLOROQUINE PHOSPHATE] | 72 nM |  |  |  |
| Ruthenium-Chloroquine Complex[RuCl2(CQ)]2 |  | 46.5 nM | 18 nM | 10.5 nM |
